According to ChEMBL document CHEMBL1124452, “New sensitizers for photodynamic therapy: controlled synthesis of purpurins and their effect on normal tissue” (1989):

Test system: Rattus norvegicus
Test: In vivo cytotoxicity to the FANFT-induced urothelial cell carcinoma transplanted onto Fischer CDF (F344/CrlBR) rats (Tumoricidal activity)
Assay type: functional

SMILES	Therapeutic dose [mg/kg]
CCOC(=O)C1=Cc2c3nc(cc4nc(cc5[nH]c(cc6[nH]c2c(C)c6CC)c(C)c5CC)C(C)=C4CC)C(C)C13CC (configuration not stated) [ETIOPURPURIN]	2.5
CCOC(=O)C1=Cc2c3nc(cc4nc(cc5[nH]c(cc6[nH]c2c(CC)c6CC)c(CC)c5CC)C(CC)=C4CC)C(CC)C13CC (configuration not stated) [OCTAETHYLPURPURIN]	5
